The source of these data is paper PMC11881554 (Antimicrobial Agents and Chemotherapy, 2025).

For series [1], the system named is K. pneumoniae KPC-Kpn-1 (KPC-3, SHV-12, TEM-1). The experiment in a line: MIC by agar dilution, KPC-Kpn-1. It is filed as cell-based. To be noted: Klebsiella pneumoniae, inhibitor (MB076 or S02030) fixed at 4 µg/mL in the combination. The method, then: (§1) Cation adjusted (25.0 mg/L Ca^2+ and 12.5 mg/L Mg^2+) Mueller-Hinton broth (CAMHB; BBL Microbiology Systems, Cockeysville, MD) and agar (CAMHA; Becton, Dickinson and Company, Sparks, MD) were used for susceptibility testing and for all in vitro experiments. […] All antibiotic solutions were filter sterilized using a 0.22-μm-pore-size filter (Fisher Scientific, Pittsburgh, PA).
(Agar dilution tests growth on a series of plates holding different concentrations.)

Series [2] has as its system K. pneumoniae Kpn266 (SHV-5). The experiment in a line: MIC by agar dilution, Kpn266. It is filed as cell-based. Particulars: Klebsiella pneumoniae, MB076 fixed at 4 µg/mL in the combination. The method, then:
as §1

For series [3], the system named is K. pneumoniae Kpn ST258 C3 (KPC-3). Briefly: MIC by agar dilution, Kpn ST258 C3. It is filed as cell-based. To be noted: Klebsiella pneumoniae, MB076 fixed at 4 µg/mL in the combination. The method, then: as §1
The test system of series [4] is K. pneumoniae Kpn 255 (TEM-1, SHV-2). Briefly: MIC by agar dilution, Kpn 255. It is filed as cell-based. Particulars: Klebsiella pneumoniae, MB076 fixed at 4 µg/mL in the combination. The method, then: as §1
In series [5] the test system is K. pneumoniae Kpn ST17 (KPC-2, TEM, SHV, CTX-M group 1). The experiment in a line: MIC by agar dilution, Kpn ST17. It is filed as cell-based. Particulars: Klebsiella pneumoniae, MB076 fixed at 4 µg/mL in the combination. The method, then: as §1
For series [6] the following is noted: healthy adults, multidose cefepime and zidebactam; cited from earlier work.
Series [7] concerns K. pneumoniae Kpn ST258 B5 (KPC-2). The experiment in a line: MIC by agar dilution, Kpn ST258 B5. It is filed as cell-based. Particulars: Klebsiella pneumoniae, MB076 fixed at 4 µg/mL in the combination. Here is the method:
as §1

Series [8] has as its system E. coli ATCC BAA202 (SHV-1). The experiment in a line: MIC by agar dilution, E. coli ATCC BAA202. It is filed as cell-based. To be noted: Escherichia coli, ATCCBAA202, MB076 fixed at 4 µg/mL in the combination. Here is the method: as §1
The test system of series [9] is K. pneumoniae Kpn original KPC-2. The experiment in a line: MIC by agar dilution, Kpn original KPC-2. It is filed as cell-based. Particulars: Klebsiella pneumoniae, MB076 fixed at 4 µg/mL in the combination. The method, then: as §1
For series [10], the system named is K. pneumoniae Kpn 34700 (CTX-M-15, SHV, TEM). The experiment in a line: MIC by agar dilution, Kpn 34700. It is filed as cell-based. To be noted: Klebsiella pneumoniae, MB076 fixed at 4 µg/mL in the combination. The method, then: as §1
For series [11], the system named is K. pneumoniae isolate KPC-Kpn-1. The experiment in a line: Neutropenic mouse lung infection model (intranasal challenge). It is filed as in vivo. To be noted: 24 h post treatment; treatment from 2 h post infection; cefepime 127.5 mg/kg/day SC, MB076 100 mg/kg/day IV (25 mg/kg every 6 h); neutropenic mice, n = 5. The method, then: (§2) A 0.2 mL aliquot of a single-use glycerol stock of the KPC-Kpn isolate (at −80°C) was used to seed 20 mL brain heart infusion (BHI) and then incubated at 35–37°C with shaking (120 rpm) for 8 h. Bacterial cells in the 20 mL aliquot were pelleted by centrifugation (3,500 × g) for 15 min and then resuspended in 10 mL cold phosphate buffer saline (PBS). The optical density, OD620 nm, was measured and used to guide dilution. The PBS suspensions were stored on ice for no more than 2 h prior to infecting the animals. The bacterial count in the challenge organism suspension was enumerated by dilution plating to CAMH agar plates followed by 20–24 h incubation.
Eleven- to 12-week-old BALB/c mice obtained from Charles River Laboratories (Raleigh, NC) were allowed to acclimatize for at least 1 week prior to initiating the studies. All animal procedures were approved by the Institutional Animal Care and Use Committee at the University of North Carolina at Chapel Hill (IACUC ID: 21-125.0), and all experiments were performed in accordance with institutional guidelines for animal experiments. […]
Five mice/group were sacrificed by overdose of inhaled 5% isoflurane at 26 h post inoculation. […] Lung bacterial counts were analyzed using a one-way ANOVA followed by post-hoc Tukey multiple comparison test (GraphPad Prism 10.1, GraphPad Software Inc., San Diego, USA). […]

For series [12], the system named is K. pneumoniae KPC-Kpn-1. The experiment in a line: Survival of mice infected intravenously via the tail vein. It is filed as in vivo. Particulars: male C57BL/6, 7 per group, 2.1 × 10^8 CFU/mouse IV; 100 mg/kg/dose at infection, 18 and 24 h; combination at 1:4 molar ratio. Here is the method: as §2
Seven male C57BL/6 mice per treatment group were infected intravenously via the tail-vein by injecting a prepared inoculum of KPC-Kpn-1, input CFU = 2.1 × 10^8 CFU/mouse, contained in a volume of 0.25 mL per animal. […] Doses were repeated the following morning and afternoon (18 and 24 h after infection). Survival was evaluated 24 h post-treatment. Kaplan-Meier survival curves were generated using log-rank test (GraphPad Prism 10.1, GraphPad Software Inc., San Diego, USA). A P value of <0.05 was considered statistically significant.

On the set-up of series [13]: method as in PMID 37358467. Particulars: cited from earlier work.
A short description of series [14]: Plasma pharmacokinetics of MB076 after single IV dose in thigh-infected mice. It is filed as in vivo, mouse. To be noted: for half-life / AUC(0-t) / AUC(0-inf) / C0 / clearance / Vd: plasma; for half-life: iv; for Vd: read-out: Vss. Here is the method:
A single dose PK study was conducted in mice infected with K. pneumoniae AR-BANK#0098 (producing KPC-2, OXA-9, and TEM-1) employing a thigh infection model. Escalating doses of MB076 (12.5, 25, 50, and 100 mg/kg) were intravenously administered via the tail vein. Following this terminal blood sampling via cardiac puncture was performed at eight different time points 5, 15, 30, 60, 90, 120, 180, and 240 min for each dose level. Plasma was separated by centrifugation at 4,000g for 10 min at 4°C and stored at −80°C until MB076 quantification was performed by LC/MS-MS bioanalysis.
WinNonlin software (Phoenix Build 8.3.1.5014) was employed to perform noncompartmental analysis (NCA) to calculate the PK parameters like elimination half-life (t1/2), area under the concentration–time curve over the duration of study (AUC0–last), and infinity (AUC0–inf), and the peak drug concentration (C0), volume of distribution (V) and clearance (CL). The AUCs for the different MB076 dose levels were calculated and compared to assess for any dose related non-linearity with increasing dose.
Terminal blood collection from cardiac puncture was conducted under CO2 euthanasia. Blood, 0.3–0.4 mL, was drawn into tubes coated with K2EDTA, mixed gently and kept on ice, and centrifuged at 12,000 × g for 5 min at 4°C within 1 h of collection. The plasma was harvested and stored at −80°C until further processing.
A 20 µL aliquot of each plasma sample was transferred to a 96 well plate. A 500 µL aliquot of 0.01 ng/µL internal standard (IS), Oxybutynin, in ACN/FA = 95/5, was added to each tube except for the double blank and carryover controls. A 500 µL aliquot of ACN/FA = 95/5, without oxybutynin, was added to the double blank and carryover assay wells. The equilibrated mixture was vortexed for 1 min and then centrifuged at 4,000 rpm for 10 min at 20°C to precipitate protein. After centrifugation, 500 µL of the supernatant was transferred to a new well of the 96 well plate for LC-MS/MS analysis. Plasma samples from treatment groups and the calibration curve samples were processed on the same test occasion using the same procedure. The calibration curve samples were generated by spiking aliquots of drug-free plasma with an MB076 dilution. The quality control (QC) samples, QH (high), QM (medium), and QL (low) were each assayed in duplicate.
LC-MS/MS was conducted with a SCIEX Triple Quad 5500 + mass spectrometer. Method development was conducted to determine appropriate conditions for LC-MS/MS analysis of MB076. A titration of a stock solution was performed to correlate peak areas and the corresponding concentration. The reportable linear range of the assay was determined along with the lower and upper limits of quantitation (LLOQ and […]).
To develop the bioanalytical method, MB076 was prepared in ACN/H2O = 50/50 at 1 ng/µL. Full scan MS analyses were conducted, and total ion current chromatograms and corresponding mass spectra were reviewed for MB076 in both positive and negative ionization modes. The precursor ions for MS/MS were selected from either the positive or the negative mass spectrum, as a function of the respective ion abundance. In addition, product ion MS/MS analysis was performed to determine the appropriately selected fragmentation reaction for use in quantitative analysis. The final reaction monitoring parameters were chosen to maximize the ability to quantify the test compound when present within a complex mixture of components. Following the identification of the specific multiple reaction monitoring (MRM) transition to be used for each test compound, the detection parameters were optimized. MB076 was observed as one charged ion [M + H]+ and the MRM chosen was m/z = 374.0 to m/z = 243.2 for MB076 in electrospray positive ion mode.
The chromatographic conditions used for LC-MS analysis were identified by injection and separation of the analyte on a suitable LC column followed by adjustment of the gradient conditions as necessary. […]

The test system of series [15] is K. pneumoniae KPC-Kpn-1. The experiment in a line: Static time-kill assay in CAMHB. It is filed as cell-based. Particulars: in combination with cefepime. Here is the method: as §1
The mark [16] stands for this setting: mouse, 12.5 mg/kg single IV, thigh-infected mice.
Where [17] appears, read: mouse, 25 mg/kg single IV, thigh-infected mice.
[18] abbreviates: mouse, 50 mg/kg single IV, thigh-infected mice.
The mark [19] stands for this setting: mouse, 100 mg/kg single IV, thigh-infected mice.

Like-named read-outs stand apart in the source and are kept apart here.

For orientation: MIC means the lowest concentration found to suppress growth. In the case of `CO/N=C(\C(=O)N[C@@H]1C(=O)N2C(C(=O)[O-])=C(C[N+]3(C)CCCC3)CS[C@H]12)c1csc(N)n1` [FEP, cefepime], the MIC is 32 µg/mL in series [1]; 2 µg/mL in series [2]; 32 µg/mL in [3]; 4 µg/mL in [4]; 8 µg/mL in series [5]; 32 µg/mL in series [7]. The MIC in series [8] amounted to 1 µg/mL; in [9], 64 µg/mL; in series [10], 32 µg/mL. Further, the “median AUCELF/AUCplasma” value in [6] is 38%. Besides, the “log10 CFU reduction in lung compared to the no treatment control group” value in series [11] was 1.07 log10 CFU. Also, the “survival outcome of all mice in the group” value in the series on K. pneumoniae KPC-Kpn-1 [12] is reported as “died”.
For orientation: half-life means how long it takes for the measured level to halve. What is called AUC(0-inf) is total exposure, with the tail of the curve extrapolated. The low end stands for less exposure, the high end for more exposure. Usually clearance stands for the rate of elimination divided by the concentration. A higher clearance goes with efficient removal. With `Nc1nnc(SCC(=O)N[C@@H](Cn2cc(C(=O)O)nn2)B(O)O)s1` [MB076], in [13], the “t1/2 (plasma stability)” value was 1740 min. In addition, the reduction in clearance in series [14] (100 mg/kg compared to 12.5 mg/kg) worked out at 1.7 fold. Besides, in series [14] (from 12.5 to 100 mg/kg dose), the “increase of dose-normalized AUC” value is reported as “twofold”. Further, in series [14] (hepatic blood flow in mouse 5.4 L/h/kg), the extraction ratio came to 0.33. In series [14] (mouse, IV), the clearance classification entry is on record as “low clearance compound”. Further, the half-life in series [14] (mouse, 25 mg/kg, 25 mg/kg single IV, thigh-infected mice) is 36.6 min; in [14] (mouse, 50 mg/kg, 50 mg/kg single IV, thigh-infected mice), 25.8 min; in [14] (mouse, 100 mg/kg, 100 mg/kg single IV, thigh-infected mice), 25.8 min. For the same compound, the AUC(0-t) is 7100 to 103000 ng·h/mL in series [14] (mouse, single IV 12.5 to 100 mg/kg, infected mice, read-out: AUClast, range over the dose levels); 7100 ng·h/mL in [14] (mouse, 12.5 mg/kg single IV, thigh-infected mice, read-out: AUClast); 17600 ng·h/mL in series [14] (mouse, 25 mg/kg single IV, thigh-infected mice, read-out: AUClast); 39000 ng·h/mL in series [14] (mouse, 50 mg/kg single IV, thigh-infected mice, read-out: AUClast); 103000 ng·h/mL in series [14] (mouse, 100 mg/kg single IV, thigh-infected mice, read-out: AUClast). The “dose linearity of plasma PK” value in [14] (mouse, single IV) is “linear PK in plasma up to 50 mg/kg dose”. For the same compound, the AUC(0-inf) in series [14] (setting [16]) came to 7200 ng·h/mL; in [14] (setting [17]) it was 17800 ng·h/mL; in series [14] (setting [18]), 31900 ng·h/mL; in series [14] (setting [19]) it was 104000 ng·h/mL. Besides, the C0 was found to be 35.6 µg/mL in [14] (setting [16]), 84 µg/mL in [14] (setting [17]), 207 µg/mL in [14] (setting [18]) and 638 µg/mL in [14] (setting [19]). Besides, the clearance in [14] (setting [16]) was 29.1 mL/min/kg; in series [14] (setting [17]) it was 23.4 mL/min/kg; in series [14] (setting [18]) it was 21.3 mL/min/kg; in series [14] (setting [19]), 16.1 mL/min/kg. Besides, the Vd in [14] (setting [16]) came out at 0.65 L/kg; in series [14] (setting [17]) it was 0.8 L/kg; in [14] (setting [18]) it was 0.35 L/kg; in series [14] (setting [19]), 0.21 L/kg. In addition, the “inhibitor concentration achieving sustained bacterial killing” value with K. pneumoniae KPC-Kpn-1 [15] stood at 4 µg/mL.
Turning to `O=C(Cc1cccs1)N[C@@H](Cn1cc(C(=O)O)nn1)B(O)O` [S02030], the “t1/2 (plasma stability)” value in series [13] is 540 min. In addition, the “inhibitor concentration achieving sustained bacterial killing” value in the series on K. pneumoniae KPC-Kpn-1 [15] is listed as 8 µg/mL.
